The source of these data is ChEMBL document CHEMBL5233273, “An overview of hydroxypyranone and hydroxypyridinone as privileged scaffolds for novel drug discovery” (Eur J Med Chem, 2021).

Converted amounts (≈) assume the structure as drawn.

Chain of Histamine H3 receptor (Q9Y5N1 whole entry): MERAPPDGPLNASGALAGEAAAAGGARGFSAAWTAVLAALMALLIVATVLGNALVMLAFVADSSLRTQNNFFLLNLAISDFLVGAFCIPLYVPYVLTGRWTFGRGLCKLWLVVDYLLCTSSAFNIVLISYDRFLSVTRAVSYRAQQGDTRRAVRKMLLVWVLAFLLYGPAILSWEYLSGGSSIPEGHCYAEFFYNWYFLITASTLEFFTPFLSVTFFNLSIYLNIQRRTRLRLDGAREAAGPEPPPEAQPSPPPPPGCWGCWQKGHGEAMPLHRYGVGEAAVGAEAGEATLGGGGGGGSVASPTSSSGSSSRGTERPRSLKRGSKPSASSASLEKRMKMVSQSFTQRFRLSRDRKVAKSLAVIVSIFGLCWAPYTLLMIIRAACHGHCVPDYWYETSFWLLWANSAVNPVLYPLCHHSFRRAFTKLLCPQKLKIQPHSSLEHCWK

One test deals with Mycolicibacterium smegmatis. Nature of the test: Antimycobacterial activity against Mycobacterium smegmatis. The class given is functional.
On to `Cc1cc(=O)c(O)c(CN2CCCC(CO)C2)o1` (stereo unspecified), for which 8 µg/mL (≈ 31.6 µM) was the least that counted as inhibitory (MIC). Still for that read-out and setting: the value for `Cc1cc(=O)c(O)c(CN2C(C)CCCC2C)o1` (stereo unspecified) was 8 µg/mL (≈ 31.8 µM). For the molecule `Cc1cc(=O)c(O)c(CN2CCCCC2)o1`, inhibition of growth (MIC) required 8 µg/mL (≈ 35.8 µM). `Cc1cc(=O)c(O)c(CN2CCCC(O)C2)o1` (stereo unspecified) came in with an MIC of 8 µg/mL (≈ 33.4 µM). The same measure, in the same setting: as for `Cc1cc(=O)c(O)c(CN2CCC(CO)CC2)o1`, the figure is 8 µg/mL (≈ 31.6 µM).

`Cc1cc(=O)c(O)c(CN2CCC(c3ccccc3)CC2)o1` displayed an MIC of 8 µg/mL (≈ 26.7 µM).

The molecule `CCCC1CCN(Cc2oc(C)cc(=O)c2O)CC1` returned a minimal inhibitory concentration (MIC) of 8 µg/mL (≈ 30.1 µM). Regarding `Cc1cc(=O)c(O)c(CN2CCC(c3ccccn3)CC2)o1`, the minimum inhibitory concentration (MIC) is 8 µg/mL (≈ 26.6 µM).

Molecule `CCC1CCC(C)N(Cc2oc(C)cc(=O)c2O)C1` (stereo unspecified) returned an MIC of 8 µg/mL (≈ 30.1 µM).

The molecule `Cc1cc(=O)c(O)c(CN2CCC(O)CC2)o1` returned an MIC of 8 µg/mL (≈ 33.4 µM). On the same count and under the same terms, the value for `Cc1cc(=O)c(O)c(CN2CCC(N3CCOCC3)CC2)o1` was 8 µg/mL (≈ 25.9 µM); that for `CCCC1CCCCN1Cc1oc(C)cc(=O)c1O` (stereo unspecified) was 8 µg/mL (≈ 30.1 µM); that for `Cc1cc(=O)c(O)c(CN2CCCCC2C)o1` (stereo unspecified) was 8 µg/mL (≈ 33.7 µM). Molecule `Cc1cc(=O)c(O)c(CN2CCCC(C)C2)o1` (stereo unspecified) returned a minimal inhibitory concentration (MIC) of 8 µg/mL (≈ 33.7 µM). For `Cc1cc(=O)c(O)c(CN2CCC(C)CC2)o1`, the MIC amounted to 8 µg/mL (≈ 33.7 µM). The molecule `Cc1cc(=O)c(O)c(CN2CCC(Cc3ccccc3)CC2)o1` yielded a minimum inhibitory concentration (MIC) of 8 µg/mL (≈ 25.5 µM). The same measure, in the same setting: as for `Cc1cc(=O)c(O)c(CN2CC(C)CC(C)C2)o1` (stereo unspecified), the figure is 8 µg/mL (≈ 31.8 µM); as for `Cc1cc(=O)c(O)c(CN2CCC(c3ccc(O)cc3)CC2)o1`, 8 µg/mL (≈ 25.4 µM). For the molecule `CCOC(=O)C1CCN(Cc2oc(C)cc(=O)c2O)CC1`, the minimal inhibitory concentration (MIC) came to 8 µg/mL (≈ 27.1 µM).

For another test, the system named is Pseudomonas aeruginosa. Briefly: Antibacterial activity against Pseudomonas aeruginosa. The class given is functional.
Molecule `CCCC(=O)NC(CCCNC(=O)c1c(O)c(=O)ccn1CCO)(CCCNC(=O)c1c(O)c(=O)ccn1CCO)CCCNC(=O)c1c(O)c(=O)ccn1CCO` registered a minimum inhibitory concentration (MIC) of 16 µg/mL (≈ 19.6 µM). `CCCC(=O)NC(CCCNC(=O)c1c(O)c(=O)ccn1C)(CCCNC(=O)c1c(O)c(=O)ccn1C)CCCNC(=O)c1c(O)c(=O)ccn1C` came in with a minimal inhibitory concentration (MIC) of 16 µg/mL (≈ 22 µM).

Another test relates to Staphylococcus aureus. Briefly: Antibacterial activity against Staphylococcus aureus assessed as zone of inhibition. The class given is functional.
As for `O=C(/C=C/c1ccc(C(=O)OCc2cc(=O)c(O)co2)cc1)c1ccc(Br)cc1`, the “inhibition zone (IZ)” value worked out at 8 mm. Turning to `O=C(/C=C/c1ccc(C(=O)OCc2cc(=O)c(O)co2)cc1)c1ccccc1`, the “inhibition zone (IZ)” value was 8 mm.

For the next test, the system named is A549. Briefly: Cytotoxicity against human A549 cells. The class given is functional, cell-based.
Take `CC(C)(C)[Si](C)(C)OCc1cc(=O)c(O)c(C(C[N+](=O)[O-])c2ccc(Br)cc2)o1` (stereo unspecified): the half-inhibitory concentration (IC50) turned out to be 8 µM. That is a single-digit micromolar value. `CC(C)(C)[Si](C)(C)OCc1cc(=O)c(O)c(C(C[N+](=O)[O-])c2cccc(Cl)c2)o1` (stereo unspecified) yielded a 50% inhibitory concentration (IC50) of 9 µM.

The test system of the next test is Mycobacterium tuberculosis. Briefly: Antitubercular activity against Mycobacterium tuberculosis H37Rv ATCC 27294. The class given is functional.
`O=C(C1CCCCC1)N1CCN(Cc2oc(CCl)cc(=O)c2O)CC1` yielded an MIC of 4 µg/mL (≈ 10.8 µM).

In another test the test system is DU-145. Nature of the test: Cytotoxicity against human DU-145 cells. The class given is functional, cell-based.
Take `CC(C)(C)[Si](C)(C)OCc1cc(=O)c(O)c(C(C[N+](=O)[O-])c2ccc(Br)cc2)o1` (stereo unspecified): the IC50 stood at 13 µM.

On to `CC(C)(C)[Si](C)(C)OCc1cc(=O)c(O)c(C(C[N+](=O)[O-])c2cccc(Cl)c2)o1` (stereo unspecified), for which the IC50 came out at 14 µM. This IC50 and that of the molecule before are within 1.5-fold of each other.

Another test has as its target Histamine H3 receptor (Homo sapiens, UniProt Q9Y5N1). Nature of the test: Binding affinity to human H3R expressed in HEK293 cells membrane. The class given is cell membranes.
`O=c1cc(CN(Cc2ccc(OCCCN3CCCCC3)cc2)Cc2cc(=O)c(O)co2)occ1O` had a Ki of 0.01 µM. `O=c1cc(CNCc2ccc(OCCCN3CCCCC3)cc2)occ1O` showed an inhibition constant (Ki) of 0.0316 µM.

Another test deals with Staphylococcus aureus. Nature of the test: Antibacterial activity against Staphylococcus aureus. The class given is functional.
Consider `CCCC(=O)NC(CCCNC(=O)c1c(O)c(=O)ccn1CCO)(CCCNC(=O)c1c(O)c(=O)ccn1CCO)CCCNC(=O)c1c(O)c(=O)ccn1CCO`, for which the MIC was 8 µg/mL (≈ 9.81 µM). Take `CCCC(=O)NC(CCCNC(=O)c1c(O)c(=O)ccn1C)(CCCNC(=O)c1c(O)c(=O)ccn1C)CCCNC(=O)c1c(O)c(=O)ccn1C`: the MIC was found to be 8 µg/mL (≈ 11 µM). For the molecule `Cn1cc(O)c(=O)cc1C(=O)Nc1ccccc1`, 16 µg/mL (≈ 65.5 µM) was the least that counted as inhibitory (MIC). `Cn1cc(O)c(=O)cc1C(=O)Nc1cccnc1` came in with an MIC of 32 µg/mL (≈ 130 µM).

A further test deals with HepG2. Nature of the test: Cytotoxicity against human HepG2 cells. The class given is functional, cell-based.
As to `O=c1cc(CN2CCCC2)oc(CN2CCN(Cc3ccc(Br)c(F)c3)CC2)c1O`, half-maximal inhibition (IC50) was put at 32.7 µM. Molecule `O=c1cc(CN2CCCCC2)oc(CN2CCN(Cc3ccc(Br)c(F)c3)CC2)c1O` had an IC50 of 37.2 µM.

The subject of a further test is Bacillus subtilis. Nature of the test: Antibacterial activity against Bacillus subtilis. The class given is functional.
As to `CCCC(=O)NC(CCCNC(=O)c1c(O)c(=O)ccn1CCO)(CCCNC(=O)c1c(O)c(=O)ccn1CCO)CCCNC(=O)c1c(O)c(=O)ccn1CCO`, the MIC worked out at 8 µg/mL (≈ 9.81 µM). In turn, `CCCC(=O)NC(CCCNC(=O)c1c(O)c(=O)ccn1C)(CCCNC(=O)c1c(O)c(=O)ccn1C)CCCNC(=O)c1c(O)c(=O)ccn1C` returned an MIC of 8 µg/mL (≈ 11 µM).

Target in another test: not listed separately
Briefly: Inhibition of HIV-1 integrase. Further details: species or system Human immunodeficiency virus 1.
The molecule `Cc1cc(=O)c(O)c(C(=O)NCc2ccc(Cl)cc2)o1` returned a 50% effective concentration (EC50) of 1.95 µM and an IC50 of 1.72 µM.

In turn, `Cc1cc(=O)c(O)c(C(=O)NCc2ccc(F)cc2)o1` showed a 50% effective concentration (EC50) of 0.7 µM and a 50% inhibitory concentration (IC50) of 0.37 µM.

For the next test, the system named is Candida albicans. Nature of the test: Antifungal activity against Candida albicans ATCC 90028. The class given is functional.
In the case of `Cc1cc(=O)c(O)c(CN2CCN(c3ccc(Cl)cc3)CC2)o1`, the minimal inhibitory concentration (MIC) was 64 µg/mL (≈ 191 µM). The same measure, in the same setting: as for `COc1ccccc1N1CCN(Cc2oc(C)cc(=O)c2O)CC1`, the figure is 64 µg/mL (≈ 194 µM); as for `Cc1cc(=O)c(O)c(CN2CCN(Cc3ccccc3)CC2)o1`, 64 µg/mL (≈ 204 µM).

Molecule `Cc1cc(=O)c(O)c(CN2CCN(Cc3ccc4c(c3)OCO4)CC2)o1` gave a minimum inhibitory concentration (MIC) of 64 µg/mL (≈ 179 µM). For `Cc1cc(=O)c(O)c(CN2CCN(c3ccccc3Cl)CC2)o1`, the MIC came out at 64 µg/mL (≈ 191 µM).

The subject of a further test is HeLa. Nature of the test: Cytotoxicity against human HeLa cells. The class given is functional, cell-based.
As for `CC(C)(C)[Si](C)(C)OCc1cc(=O)c(O)c(C(C[N+](=O)[O-])c2cccc(Cl)c2)o1` (stereo unspecified), the half-maximal inhibitory concentration (IC50) was determined as 10 µM. This counts as double-digit micromolar.

For a further test, the system named is Mycobacterium avium. Briefly: Antitubercular activity against Mycobacterium avium ATCC 15769. The class given is functional.
For the molecule `O=C(C1CCCCC1)N1CCN(Cc2oc(CCl)cc(=O)c2O)CC1`, 4 µg/mL (≈ 10.8 µM) was the least that counted as inhibitory (MIC).

The test system of a further test is Escherichia coli. Nature of the test: Antibacterial activity against Escherichia coli. The class given is functional.
The molecule `CCCC(=O)NC(CCCNC(=O)c1c(O)c(=O)ccn1CCO)(CCCNC(=O)c1c(O)c(=O)ccn1CCO)CCCNC(=O)c1c(O)c(=O)ccn1CCO` came in with an MIC of 8 µg/mL (≈ 9.81 µM). `CCCC(=O)NC(CCCNC(=O)c1c(O)c(=O)ccn1C)(CCCNC(=O)c1c(O)c(=O)ccn1C)CCCNC(=O)c1c(O)c(=O)ccn1C` registered an MIC of 8 µg/mL (≈ 11 µM).
